Laboratory results: ChEMBL document CHEMBL4507290 (2021)

What was measured:
[1] = target: Protein kinase C epsilon type (Homo sapiens) (UniProt Q02156); details: Compound concentration 1000.0 nM
[2] = target: Ephrin type-A receptor 5 (Homo sapiens) (UniProt P54756); details: Compound concentration 1000.0 nM
[3] = target: Rho-associated protein kinase 1 (Homo sapiens) (UniProt Q13464); details: Compound concentration 1000.0 nM
[4] = target: Mitogen-activated protein kinase kinase kinase 5 (Homo sapiens) (UniProt Q99683); details: Compound concentration 1000.0 nM
[5] = target: Mitogen-activated protein kinase 11 (Homo sapiens) (UniProt Q15759); details: Compound concentration 1000.0 nM
[6] = system: Mast/stem cell growth factor receptor Kit (Homo sapiens), P10721 [V559D,V654A]; details: Compound concentration 1000.0 nM
[7] = target: Serine/threonine-protein kinase PAK 6 (Homo sapiens) (UniProt Q9NQU5); details: Compound concentration 1000.0 nM
[8] = target: Eukaryotic translation initiation factor 2-alpha kinase 1 (Homo sapiens) (UniProt Q9BQI3); details: Compound concentration 1000.0 nM
[9] = target: Ephrin type-A receptor 8 (Homo sapiens) (UniProt P29322); details: Compound concentration 1000.0 nM
[10] = target: Cyclin-G-associated kinase (Homo sapiens) (UniProt O14976); details: Compound concentration 1000.0 nM
[11] = target: Tyrosine-protein kinase TXK (Homo sapiens) (UniProt P42681); details: Compound concentration 1000.0 nM
[12] = target: Serine/threonine-protein kinase RIO2 (Homo sapiens) (UniProt Q9BVS4); details: Compound concentration 1000.0 nM
[13] = target: Serine/threonine-protein kinase 38-like (Homo sapiens) (UniProt Q9Y2H1); details: Compound concentration 1000.0 nM
[14] = target: Casein kinase II subunit alpha' (Homo sapiens) (UniProt P19784); details: Compound concentration 1000.0 nM
[15] = target: Platelet-derived growth factor receptor beta (Homo sapiens) (UniProt P09619); details: Compound concentration 1000.0 nM
[16] = target: Phosphatidylinositol 5-phosphate 4-kinase type-2 gamma (Homo sapiens) (UniProt Q8TBX8); details: Compound concentration 1000.0 nM
[17] = target: Ribosomal protein S6 kinase alpha-5 (Homo sapiens) (UniProt O75582); details: Compound concentration 1000.0 nM
[18] = target: Serine/threonine-protein kinase Nek11 (Homo sapiens) (UniProt Q8NG66); details: Compound concentration 1000.0 nM
[19] = target: Serine/threonine-protein kinase TBK1 (Homo sapiens) (UniProt Q9UHD2); details: Compound concentration 1000.0 nM
[20] = target: Testis-specific serine/threonine-protein kinase 3 (Homo sapiens) (UniProt Q96PN8); details: Compound concentration 1000.0 nM
[21] = target: Serine/threonine-protein kinase D3 (Homo sapiens) (UniProt O94806); details: Compound concentration 1000.0 nM
[22] = target: Casein kinase I isoform delta (Homo sapiens) (UniProt P48730); details: Compound concentration 1000.0 nM
[23] = target: Tyrosine-protein kinase FRK (Homo sapiens) (UniProt P42685); details: Compound concentration 1000.0 nM
[24] = target: TGF-beta receptor type-1 (Homo sapiens) (UniProt P36897); details: Compound concentration 1000.0 nM
[25] = system: Epidermal growth factor receptor (Homo sapiens), P00533 [UNDEFINED MUTATION]; details: Compound concentration 1000.0 nM
[26] = target: Tyrosine-protein kinase receptor Tie-1 (Homo sapiens) (UniProt P35590); details: Compound concentration 1000.0 nM
[27] = target: Serine/threonine-protein kinase ULK1 (Homo sapiens) (UniProt O75385); details: Compound concentration 1000.0 nM
[28] = system: Receptor-type tyrosine-protein kinase FLT3 (Homo sapiens), P36888 [UNDEFINED MUTATION]; details: Compound concentration 1000.0 nM
[29] = target: GABA-A receptor; anion channel (Rattus norvegicus) (UniProt O09028+P15431+P18506+P18508+P19969+P20236+P23574+P23576+P28471+P28473+P30191+P62813+P63079+P63138+Q91ZM7+Q9ES14); details: Compound concentration 10.0 uM
[30] = target: Cyclin-dependent kinase 3 (Homo sapiens) (UniProt Q00526); details: Compound concentration 1000.0 nM
[31] = target: Serine/threonine-protein kinase PLK1 (Homo sapiens) (UniProt P53350); details: Compound concentration 1000.0 nM
[32] = target: Serine/threonine-protein kinase N2 (Homo sapiens) (UniProt Q16513); details: Compound concentration 1000.0 nM
[33] = target: Serine/threonine-protein kinase Nek9 (Homo sapiens) (UniProt Q8TD19); details: Compound concentration 1000.0 nM
[34] = target: Sigma intracellular receptor 2 (Homo sapiens) (UniProt Q5BJF2); details: Compound concentration 10.0 uM
[35] = target: Sodium-dependent noradrenaline transporter (Homo sapiens) (UniProt P23975); details: Compound concentration 10.0 uM
[36] = target: Rhodopsin kinase GRK1 (Homo sapiens) (UniProt Q15835); details: Compound concentration 1000.0 nM
[37] = target: Mitogen-activated protein kinase kinase kinase kinase 1 (Homo sapiens) (UniProt Q92918); details: Compound concentration 1000.0 nM
[38] = target: Tyrosine-protein kinase Lck (Homo sapiens) (UniProt P06239); details: Compound concentration 1000.0 nM
[39] = target: Proto-oncogene tyrosine-protein kinase Src (Homo sapiens) (UniProt P12931); details: Compound concentration 1000.0 nM
[40] = target: Tyrosine-protein kinase Yes (Homo sapiens) (UniProt P07947); details: Compound concentration 1000.0 nM
[41] = system: Leucine-rich repeat serine/threonine-protein kinase 2 (Homo sapiens), Q5S007 [G2019S]; details: Compound concentration 1000.0 nM
[42] = target: Serine/threonine-protein kinase Sgk1 (Homo sapiens) (UniProt O00141); details: Compound concentration 1000.0 nM
[43] = target: Phosphatidylinositol 4,5-bisphosphate 3-kinase catalytic subunit delta isoform (Homo sapiens) (UniProt O00329); details: Compound concentration 1000.0 nM

Sequence of Mast/stem cell growth factor receptor Kit (Homo sapiens), P10721 [V559D,V654A] (P10721 whole entry V559D/V654A): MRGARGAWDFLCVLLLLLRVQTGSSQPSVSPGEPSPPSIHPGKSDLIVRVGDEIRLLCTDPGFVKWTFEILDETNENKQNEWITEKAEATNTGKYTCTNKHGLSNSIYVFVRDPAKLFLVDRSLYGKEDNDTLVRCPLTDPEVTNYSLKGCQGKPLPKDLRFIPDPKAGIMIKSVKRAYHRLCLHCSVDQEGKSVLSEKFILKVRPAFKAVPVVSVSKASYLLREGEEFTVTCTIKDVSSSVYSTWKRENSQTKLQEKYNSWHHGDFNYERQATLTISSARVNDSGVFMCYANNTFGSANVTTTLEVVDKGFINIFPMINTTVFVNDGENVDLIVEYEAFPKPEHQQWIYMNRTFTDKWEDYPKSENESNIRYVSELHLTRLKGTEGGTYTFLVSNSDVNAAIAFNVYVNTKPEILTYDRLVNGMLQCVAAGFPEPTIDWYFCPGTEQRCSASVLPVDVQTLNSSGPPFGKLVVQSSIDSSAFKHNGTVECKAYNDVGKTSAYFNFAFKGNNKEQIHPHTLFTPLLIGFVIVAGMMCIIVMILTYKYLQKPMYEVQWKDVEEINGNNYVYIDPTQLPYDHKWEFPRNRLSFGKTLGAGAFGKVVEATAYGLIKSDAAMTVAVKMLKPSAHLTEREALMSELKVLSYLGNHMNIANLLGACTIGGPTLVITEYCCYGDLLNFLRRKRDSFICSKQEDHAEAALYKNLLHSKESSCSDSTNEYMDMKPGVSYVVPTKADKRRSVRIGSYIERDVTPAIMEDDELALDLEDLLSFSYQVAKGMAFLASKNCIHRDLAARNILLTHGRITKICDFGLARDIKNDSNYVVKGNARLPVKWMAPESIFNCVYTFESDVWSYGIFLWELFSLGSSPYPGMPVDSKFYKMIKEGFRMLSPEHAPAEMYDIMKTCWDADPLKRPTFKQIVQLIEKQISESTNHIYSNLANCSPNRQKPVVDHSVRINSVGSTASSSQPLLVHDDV
Sequence of Protein kinase C epsilon type (Homo sapiens) (Q02156 whole entry): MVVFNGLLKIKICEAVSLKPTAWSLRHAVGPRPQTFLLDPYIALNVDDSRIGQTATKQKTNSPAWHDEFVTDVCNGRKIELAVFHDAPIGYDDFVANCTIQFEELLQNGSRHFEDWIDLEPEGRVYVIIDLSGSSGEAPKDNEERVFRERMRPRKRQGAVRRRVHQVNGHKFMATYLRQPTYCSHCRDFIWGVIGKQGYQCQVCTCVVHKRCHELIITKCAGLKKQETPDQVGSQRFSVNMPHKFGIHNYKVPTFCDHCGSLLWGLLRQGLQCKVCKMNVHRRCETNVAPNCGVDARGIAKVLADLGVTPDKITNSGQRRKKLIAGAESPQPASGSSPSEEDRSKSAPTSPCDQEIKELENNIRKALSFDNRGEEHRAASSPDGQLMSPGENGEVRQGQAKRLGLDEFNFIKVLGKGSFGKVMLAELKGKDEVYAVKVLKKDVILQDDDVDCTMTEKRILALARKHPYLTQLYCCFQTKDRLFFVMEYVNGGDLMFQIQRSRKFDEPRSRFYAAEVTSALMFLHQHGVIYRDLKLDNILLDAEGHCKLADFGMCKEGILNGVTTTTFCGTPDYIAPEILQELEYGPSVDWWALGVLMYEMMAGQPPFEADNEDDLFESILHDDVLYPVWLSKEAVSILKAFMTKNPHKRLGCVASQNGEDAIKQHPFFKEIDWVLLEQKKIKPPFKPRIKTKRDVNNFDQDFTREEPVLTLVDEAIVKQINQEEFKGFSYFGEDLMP
Sequence of Sodium-dependent noradrenaline transporter (Homo sapiens) (P23975 whole entry): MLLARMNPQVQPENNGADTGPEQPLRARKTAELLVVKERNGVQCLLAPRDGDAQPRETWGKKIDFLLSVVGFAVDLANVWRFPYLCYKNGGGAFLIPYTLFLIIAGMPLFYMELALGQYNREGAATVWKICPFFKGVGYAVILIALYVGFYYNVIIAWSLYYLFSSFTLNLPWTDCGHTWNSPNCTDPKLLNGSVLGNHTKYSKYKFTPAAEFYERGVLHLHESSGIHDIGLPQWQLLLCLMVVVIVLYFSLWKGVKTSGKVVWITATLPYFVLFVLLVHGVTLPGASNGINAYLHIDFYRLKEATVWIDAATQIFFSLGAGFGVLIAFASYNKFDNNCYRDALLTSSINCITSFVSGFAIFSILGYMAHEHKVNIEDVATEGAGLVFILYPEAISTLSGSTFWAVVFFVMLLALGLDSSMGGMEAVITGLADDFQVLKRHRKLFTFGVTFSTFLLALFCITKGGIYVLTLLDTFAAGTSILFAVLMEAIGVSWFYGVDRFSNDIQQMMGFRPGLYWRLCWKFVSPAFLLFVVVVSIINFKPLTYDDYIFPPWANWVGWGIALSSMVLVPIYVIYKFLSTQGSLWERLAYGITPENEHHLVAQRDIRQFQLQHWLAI
Sequence of Tyrosine-protein kinase FRK (Homo sapiens) (P42685 whole entry): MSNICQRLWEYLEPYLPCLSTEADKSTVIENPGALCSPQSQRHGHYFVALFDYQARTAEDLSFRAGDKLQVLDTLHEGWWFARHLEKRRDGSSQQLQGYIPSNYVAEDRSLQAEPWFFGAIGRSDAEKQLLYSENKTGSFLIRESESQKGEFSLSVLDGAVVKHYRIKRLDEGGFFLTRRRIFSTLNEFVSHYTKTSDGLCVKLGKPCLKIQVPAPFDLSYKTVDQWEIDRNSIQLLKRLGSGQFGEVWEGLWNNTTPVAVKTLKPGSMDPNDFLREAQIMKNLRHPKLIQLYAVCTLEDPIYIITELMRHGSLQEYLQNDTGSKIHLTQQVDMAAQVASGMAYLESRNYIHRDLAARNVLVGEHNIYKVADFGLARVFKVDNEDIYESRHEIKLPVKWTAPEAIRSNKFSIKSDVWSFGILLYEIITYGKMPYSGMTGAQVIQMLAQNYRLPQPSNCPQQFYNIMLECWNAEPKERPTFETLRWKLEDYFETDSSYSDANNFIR
Sequence of Cyclin-dependent kinase 3 (Homo sapiens) (Q00526 whole entry, looked up): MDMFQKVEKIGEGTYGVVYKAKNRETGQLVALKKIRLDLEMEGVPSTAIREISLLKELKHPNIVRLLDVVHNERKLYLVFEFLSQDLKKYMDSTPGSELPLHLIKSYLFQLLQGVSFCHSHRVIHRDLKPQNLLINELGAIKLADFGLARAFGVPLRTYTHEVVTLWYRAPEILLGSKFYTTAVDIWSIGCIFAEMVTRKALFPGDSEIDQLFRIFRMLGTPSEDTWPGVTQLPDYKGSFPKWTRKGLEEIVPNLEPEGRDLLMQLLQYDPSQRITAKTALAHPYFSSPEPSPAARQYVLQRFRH
Sequence of Tyrosine-protein kinase Yes (Homo sapiens) (P07947 2-543 limits assumed): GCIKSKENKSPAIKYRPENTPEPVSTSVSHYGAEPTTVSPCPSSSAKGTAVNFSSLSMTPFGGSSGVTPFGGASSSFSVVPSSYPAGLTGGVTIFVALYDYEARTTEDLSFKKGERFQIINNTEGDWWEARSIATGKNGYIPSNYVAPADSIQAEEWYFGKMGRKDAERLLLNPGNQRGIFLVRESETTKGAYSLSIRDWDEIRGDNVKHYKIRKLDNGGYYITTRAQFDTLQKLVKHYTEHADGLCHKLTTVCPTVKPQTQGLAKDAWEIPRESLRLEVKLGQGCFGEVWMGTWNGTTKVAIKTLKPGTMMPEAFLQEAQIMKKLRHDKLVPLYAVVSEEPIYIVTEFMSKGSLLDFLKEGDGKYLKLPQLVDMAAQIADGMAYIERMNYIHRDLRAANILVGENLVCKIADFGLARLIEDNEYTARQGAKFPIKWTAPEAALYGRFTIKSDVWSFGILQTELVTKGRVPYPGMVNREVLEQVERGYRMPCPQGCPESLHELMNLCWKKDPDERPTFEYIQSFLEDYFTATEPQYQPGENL
Sequence of Receptor-type tyrosine-protein kinase FLT3 (Homo sapiens), P36888 [UNDEFINED MUTATION] (P36888 whole entry, looked up, change not shown): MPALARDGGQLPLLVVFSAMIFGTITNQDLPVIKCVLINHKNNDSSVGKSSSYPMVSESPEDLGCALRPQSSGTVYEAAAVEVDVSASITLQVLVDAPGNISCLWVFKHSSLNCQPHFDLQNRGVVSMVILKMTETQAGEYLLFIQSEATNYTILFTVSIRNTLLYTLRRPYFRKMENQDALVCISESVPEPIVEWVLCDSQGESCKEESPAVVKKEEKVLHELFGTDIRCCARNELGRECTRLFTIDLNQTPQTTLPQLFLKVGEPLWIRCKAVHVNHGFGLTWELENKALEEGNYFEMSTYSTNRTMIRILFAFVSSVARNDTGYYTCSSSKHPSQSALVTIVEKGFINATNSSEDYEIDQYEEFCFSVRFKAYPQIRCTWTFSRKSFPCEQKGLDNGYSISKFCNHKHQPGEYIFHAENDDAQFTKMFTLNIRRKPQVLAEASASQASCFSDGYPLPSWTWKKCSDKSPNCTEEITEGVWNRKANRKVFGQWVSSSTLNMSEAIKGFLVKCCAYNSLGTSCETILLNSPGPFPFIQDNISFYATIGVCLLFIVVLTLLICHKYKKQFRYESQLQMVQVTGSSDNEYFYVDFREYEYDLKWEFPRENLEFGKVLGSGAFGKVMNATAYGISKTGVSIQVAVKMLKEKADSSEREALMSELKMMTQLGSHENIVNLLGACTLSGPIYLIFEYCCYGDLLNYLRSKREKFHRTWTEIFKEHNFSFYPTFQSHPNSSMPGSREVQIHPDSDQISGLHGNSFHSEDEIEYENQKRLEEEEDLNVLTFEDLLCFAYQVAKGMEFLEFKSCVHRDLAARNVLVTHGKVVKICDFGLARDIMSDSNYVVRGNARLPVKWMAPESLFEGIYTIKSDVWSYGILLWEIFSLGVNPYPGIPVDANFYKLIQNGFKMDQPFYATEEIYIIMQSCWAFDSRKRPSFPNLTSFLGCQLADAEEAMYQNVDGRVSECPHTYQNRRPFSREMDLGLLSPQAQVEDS
Sequence of Testis-specific serine/threonine-protein kinase 3 (Homo sapiens) (Q96PN8 whole entry): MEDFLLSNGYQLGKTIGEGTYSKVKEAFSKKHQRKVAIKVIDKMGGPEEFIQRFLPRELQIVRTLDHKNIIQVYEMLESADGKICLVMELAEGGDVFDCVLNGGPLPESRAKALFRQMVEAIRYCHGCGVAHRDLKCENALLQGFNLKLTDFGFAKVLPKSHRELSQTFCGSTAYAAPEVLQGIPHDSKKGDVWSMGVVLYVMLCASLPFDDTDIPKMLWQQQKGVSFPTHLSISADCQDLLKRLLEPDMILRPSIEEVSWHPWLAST

With `CN([C@@H]1CCc2c(CC(=O)O)c3cc(S(C)(=O)=O)ccc3n2C1)S(=O)(=O)c1ccc(F)cc1` the residual activity [1] was 87%, the residual activity [2] was 78% and the residual activity [3] was 6%. For the same molecule, the residual activity [4] was 90%, the residual activity [5] was 83% and the residual activity [6] was 100%. For the same molecule, the residual activity [7] was 100%, the residual activity [8] was 90% and the residual activity [9] was 98%. It also gave a residual activity [10] of 93%, a residual activity [11] of 74% and a residual activity [12] of 96%. The residual activity [13] was 88%, the residual activity [14] was 100% and the residual activity [15] was 86%. It also gave a residual activity [16] of 100%, a residual activity [17] of 85% and a residual activity [18] of 100%. It also gave a residual activity [19] of 97%, a residual activity [20] of 100% and a residual activity [21] of 100%. It also gave a residual activity [22] of 100%, a residual activity [23] of 100% and a residual activity [24] of 100%. The residual activity [25] was 90%, the residual activity [26] was 95% and the residual activity [27] was 92%. It also gave a residual activity [28] of 91%, an inhibition [29] of 45% and a residual activity [30] of 100%. It also gave a residual activity [31] of 93%, a residual activity [32] of 100% and a residual activity [33] of 81%. For the same molecule, the inhibition [34] was -9.3%, the inhibition [35] was 22.4% and the residual activity [36] was 70%. The residual activity [37] was 100%, the residual activity [38] was 100% and the residual activity [39] was 96%. For the same molecule, the residual activity [40] was 88%, the residual activity [41] was 100% and the residual activity [42] was 100%. For the same molecule, the residual activity [43] was 100%.
`CN([C@@H]1CCc2c(CC(=O)O)c3ccccc3n2C1)S(=O)(=O)c1ccc(F)cc1` [MK-7246] gave a residual activity [1] of 94%, a residual activity [2] of 99% and a residual activity [3] of 34%. The residual activity [4] was 100%, the residual activity [5] was 88% and the residual activity [6] was 100%. For the same molecule, the residual activity [7] was 100%, the residual activity [8] was 98% and the residual activity [9] was 100%. For the same molecule, the residual activity [10] was 100%, the residual activity [11] was 93% and the residual activity [12] was 90%. The residual activity [13] was 83%, the residual activity [14] was 100% and the residual activity [15] was 97%. The residual activity [16] was 100%, the residual activity [17] was 95% and the residual activity [18] was 100%. It also gave a residual activity [19] of 100%, a residual activity [20] of 100% and a residual activity [21] of 94%. The residual activity [22] was 100%, the residual activity [23] was 100% and the residual activity [24] was 100%. The residual activity [25] was 100%, the residual activity [26] was 89% and the residual activity [27] was 96%. The residual activity [28] was 95%, the inhibition [29] was 27.7% and the residual activity [30] was 100%. For the same molecule, the residual activity [31] was 98%, the residual activity [32] was 100% and the residual activity [33] was 100%. It also gave an inhibition [34] of -9.73%, an inhibition [35] of 23.8% and a residual activity [36] of 88%. The residual activity [37] was 100%, the residual activity [38] was 100% and the residual activity [39] was 100%. The residual activity [40] was 100%, the residual activity [41] was 100% and the residual activity [42] was 100%. The residual activity [43] was 95%.
